Tests used:
[1] = tested on: fear extinction recall; conditions: 7.5 mg/kg, 30 minutes prior to extinction training; cited from earlier work
[2] = tested on: healthy volunteers; conditions: self-administration; cited from earlier work
[3] = tested on: PTSD; conditions: clinical case series of 21 individuals; cited from earlier work
[4] = tested on: mouse model of PTSD; experiment: Fear extinction recall in a mouse model of PTSD; type: in vivo; conditions: 30 mg/kg, IP
Procedure: FIGS. 1A-1D: Methylone improves fear extinction recall in a mouse model of PTSD. (FIG. 1A) Schematic of experimental design. A single CS—US (tone-shock) pairing on day 1 was followed by 6 CS presentations in a novel context (context B). Methylone or saline vehicle was injected 30 min prior to extinction training on day 2. On day 3, the time spent freezing to the CS was quantified. […] (FIG. 1C) The time freezing before vs. during each of 6 cues on day 3 (to control for locomotor effects) are shown. There was a significant cue×drug interaction (F(5, 130)=2.409, p<0.05). […] N=12 for methylone group (30 mg/kg, IP, orange diamonds) and N=16 for saline control group (black squares). *p<0.05
Effective PTSD treatments facilitate the disassociation between a traumatic memory and the patient's fear response, making cues for the traumatic memory evoke less of a fear response. This is modeled in the mouse fear extinction paradigm which takes place over 3 days. On day 1 (fear conditioning), mice are trained to acquire a “traumatic memory,” namely associating the conditioned stimulus (CS, tone) to the unconditioned stimulus (US, foot shock). On day 2 (extinction training), they are trained to forget the traumatic memory association by presenting the CS 6 times (with no US) in a novel environment. On day 3 (extinction recall), the mice are “asked” if that tone (CS) still elicits a fearful response, as measured by the time spent freezing when the tone is presented. Less time freezing means better extinction recall. Drugs that improve extinction recall reduce freezing time on day 3, and, therefore, show potential as a PTSD treatment.
Using these methods, prodrugs are administered to mice and tested for efficacy in the fear extinction model to evaluate their efficacy to treat PTSD and other memory disorders.

[5] = tested on: open field test; conditions: cited from earlier work
[6] = tested on: rat forced swim test; experiment: Forced swim test (FST), antidepressant-like activity; type: in vivo
Procedure: The forced swim test (FST) is a classic model to assess the antidepressant-like activity of compounds that has been in use for over 40 years (Porsolt et al. (1977) Nature 266:730-732; Detke et al. (1995) Psychopharmacology 121:66-72). […] A single dose of 5 mg/kg methylone reduces immobility by approximately 50% compared to vehicle-treated controls, whereas a 15 mg/kg dose reduces immobility by nearly 100%. Accompanying changes in climbing and/or swimming behavior reflect noradrenergic and serotonergic activities of methylone, respectively.
All FST studies are performed and scored by an experimenter blind to treatment group and according to standard protocols. Briefly, rats are placed in a circular plexiglass container filled with water. Water temperature is maintained at 22-25° C. and changed for every animal. Day 1 (Training) consists of a 15 min acclimation trial, and Day 2 (Testing, 24 h later) consists of the 5 min test. A time sampling procedure is employed where animals are observed every 5 seconds for the duration of the test session (60 counts or 5 minutes) and scored for immobility (defined as the failure to struggle), swimming (defined as a circular movement around the tank), or climbing (defined as an upwards escape behavior). Data are expressed as the percent of the testing session (e.g., the number of immobility counts divided by 60). […]

[7] = Chemical stability in phosphate buffer without hepatocytes (negative control); type: physicochemical; conditions: phosphate buffer pH 6.8 at 37° C., up to 2 hours
Procedure: (§1) Bioactivation Potential of Prodrug Candidates: After a prodrug is synthesized, its bioactivation potential to release methylone is assessed under in vitro conditions. As the prodrugs are designed to be enzymatically activated by esterases and amidases/peptidases found in the blood and/or the liver, each prodrug is incubated in human and rat whole blood as well as liver hepatocytes. In these assays, the percentage of released parent methylone and of remaining prodrug is measured at different timepoints for a period of 2 hours. A chemical stability assessment of each prodrug is also performed under various pH conditions to ensure that the methylone released is a result of enzymatic hydrolysis. Prodrugs that show in vitro bioactivation are then administered (IV/PO) to rats, and blood samples are collected to assess the pharmacokinetic profile of each prodrug.
When compound 50 was incubated with human hepatocytes under the conditions described above, at t=60 minutes, approximately 100% of the prodrug had been converted to methylone with a total recovery of approximately 100%.

[8] = tested on: human hepatocytes; experiment: Prodrug bioactivation / metabolic stability in hepatocytes; type: in vitro ADME; conditions: t=60 minutes
Procedure: as §1
For example, the metabolic stability of prodrug candidates to release methylone could be assessed in vitro according to the following protocol: cryopreserved human and rat hepatocytes are thawed in recovery media and diluted in plating media to a viable cell density of 1×10^6 cells/mL. Viability is determined by trypan blue exclusion. […] All samples, including analytical standards, are analyzed by LC-MS/MS to measure the concentration of methylone released and the concentration of the corresponding prodrug remaining. […]

Row | SMILES | reduced freezing compared to saline injected controls (extinction recall) [1] [%] | systolic and diastolic blood pressure [2] | patients with improved symptoms of PTSD [3] [%] | heart rate [2] | fear extinction recall [4] | Freezing time during the first cue on day 3 (extinction recall) compared to saline ([4]; 30 min prior to extinction training, p<0.05) | locomotor changes on day 3 ([4]; p>0.05) | thigmotaxis (time spent hugging the perimeter of the open field) ([5]; 5, 10, 20 mg/kg, SC, rats) | locomotor activity in the OFT ([5]; rat, in vivo) | time spent in the center vs the periphery in the OFT ([5]; rat, in vivo) | antidepressant-like effect in the rat forced swim test [6] | release of parent methylone in absence of hepatocytes [7] | prodrug converted to methylone [8]
1 | CNC(C)Cc1ccc2c(c1)OCO2 (centres unmarked) [MDMA] | 35 | significant increase |  |  |  |  |  |  |  |  |  |  | 
2 | CNC(C)C(=O)c1ccc2c(c1)OCO2 (centres unmarked) [Methylone, methylone] |  | significant increase | 81 | increase in heart rate | significantly improves fear extinction recall | significantly reduced | No locomotor changes were observed | reduce thigmotaxis | increases locomotor activity | reduces time spent in the center vs the periphery | robust, dose-dependent antidepressant-like effect |  | 
3 | CC(OC(=O)C(C)C)OC(=O)N(C)C(C)C(=O)c1ccc2c(c1)OCO2 (centres unmarked) [compound 50, 1-(((1-(benzo[d][1,3]dioxol-5-yl)-1-oxopropan-2-yl)(methyl)carbamoyl)oxy)ethyl isobutyrate] |  |  |  |  |  |  |  |  |  |  |  | no parent methylone was released | approximately 100%
